From patent publication US8822206B2, “Device for high-throughput stimulation, immunostaining, and visualization of single cells” (The Johns Hopkins University, priority 2005, dated 2014)

Test system: NIH3T3 mouse fibroblasts
Experiment: Cell stimulation and anti-p65 immunofluorescence staining in the microfluidic device
Type: cell-based
Details: NIH3T3 mouse fibroblasts in device and on control slides; 10 ng/ml mouse TNF-alpha in media, 10 minutes stimulation
Text: The device was fabricated as described in Example 1. The device was filled with sterile 0.1% gelatin with all of the valves open through an inlet port 11 to coat the parallel fluid channels to promote cell adhesion. Valves were primed with filtered, distilled water. Alternatively, filling may be done with the ports closed as trapped air can be pushed out of the gas-permeable PDMS with hydrostatic pressure. The device was flushed with […] the coating agent. Well-separated NIH3T3 mouse fibroblasts at a concentration of about 9 million cells per ml were introduced into the parallel fluid channels through an inlet port and the device was transferred to a standard 5% CO2, 37° C. cell culture incubator for 3-4 hours to allow the cells to adhere to the glass bottom of the parallel fluid channels.
Using the multiplexer to control flow through the reaction units, a selection of valves were closed to allow for exposure of only a portion of the cells to a stimulant. A syringe containing a solution of 10 ng/ml of mouse TNF-alpha in media was attached to an inlet port, and cells were stimulated, or not, for 10 minutes. […] After secondary antibody staining and washing with DPBS, cells were overlaid with mounting media or other antifade agent to minimize photobleaching, and imaged using fluorescence microscopy. […]

TNF-alpha
localization of p65 (anti-p65 immunofluorescence): localization of p65 to the nucleus
